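Results reflect a 48-hour exposure of cells in 96-well plates to compound at five concentrations. GI50 is the concentration that inhibits growth by half.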 Active and inactive are the calls of the source. No stated cut-off is given here; in the data, active = GI50 up to about 1.1 µM and inactive = higher.
Tests used:
Assay in all cases: DTP human tumour cell line panel, 48 h
A549 = test system: A549
ACHN = test system: ACHN
COLO 205 = test system: COLO 205
EKVX = test system: EKVX
HCC 2998 = test system: HCC 2998
HCT-116 = test system: HCT-116
HCT-15 = test system: HCT-15
K562 = test system: K562
MDA-MB-435 = test system: MDA-MB-435
MOLT-4 = test system: MOLT-4
NCI-H522 = test system: NCI-H522
NCI/ADR-RES = test system: NCI/ADR-RES
OVCAR-3 = test system: OVCAR-3
RXF 393 = test system: RXF 393
SK-MEL-2 = test system: SK-MEL-2
SN12C = test system: SN12C
SNB-19 = test system: SNB-19
T47D = test system: T47D
UACC-62 = test system: UACC-62

Row | Structure (SMILES) | GI50 (A549) | GI50 (ACHN) | GI50 (COLO 205) | GI50 (EKVX) | GI50 (HCC 2998) | GI50 (HCT-116) | GI50 (HCT-15) | GI50 (K562) | GI50 (MDA-MB-435) | GI50 (MOLT-4) | GI50 (NCI-H522) | GI50 (NCI/ADR-RES) | GI50 (OVCAR-3) | GI50 (RXF 393) | GI50 (SK-MEL-2) | GI50 (SN12C) | GI50 (SNB-19) | GI50 (T47D) | GI50 (UACC-62)
1 | CC(C)(C)OC(=O)NC12C3C4C1C1C2C3C41NC(=O)OC(C)(C)C (stereo not given) | 71.9 µM (inactive) | > 100 µM (inactive) | > 100 µM (inactive) | 26.9 µM (inactive) | > 100 µM (inactive) | 47.3 µM (inactive) | 73.3 µM | 50.4 µM (inactive) | 51.9 µM (inactive) | 15.2 µM (inactive) | 63.2 µM (inactive) | 22.5 µM (inactive) | 79.3 µM (inactive) | 28.5 µM (inactive) | > 100 µM (inactive) | 88.5 µM (inactive) | > 100 µM (inactive) | 27.3 µM (inactive) | 54.3 µM (inactive)
2 | CCCc1c(O)c(=O)c2c(OC)cc(OC)c3c4c(OC)cc(OC)c5c(=O)c(O)c(CCC)c(c1c23)c54 | 0.386 µM (active) | 0.617 µM (active) | 2.44 µM (inactive) | 1.06 µM (active) | 1.76 µM (inactive) | 0.299 µM (active) | 0.746 µM | 0.195 µM (active) | 0.371 µM (active) | 0.0883 µM (active) | 0.199 µM (active) | 0.9 µM (active) | 1.92 µM (inactive) | 2.79 µM (inactive) | 0.507 µM (active) | 1.76 µM (inactive) | 0.351 µM (active) | 1.33 µM (inactive) | 0.396 µM (active)
3 | COc1ccc(Cn2c(=O)c(OS(=O)(=O)C(F)(F)F)c(C)c3cc4ccccc4cc32)cc1 | > 100 µM (inactive) | > 100 µM (inactive) | > 100 µM (inactive) | > 100 µM (inactive) | > 100 µM (inactive) | > 100 µM (inactive) | > 100 µM | > 100 µM (inactive) | > 100 µM (inactive) | > 100 µM (inactive) | > 100 µM (inactive) | > 100 µM (inactive) | > 100 µM (inactive) | > 100 µM (inactive) | > 100 µM (inactive) | > 100 µM (inactive) | > 100 µM (inactive) | > 100 µM (inactive) | > 100 µM (inactive)
4 | CC(C)N(CC(=O)O)CC(=O)O | > 100 µM (inactive) | > 100 µM (inactive) | > 100 µM (inactive) | > 100 µM (inactive) | > 100 µM (inactive) | > 100 µM (inactive) | > 100 µM | > 100 µM (inactive) | > 100 µM (inactive) | > 100 µM (inactive) | > 100 µM (inactive) | > 100 µM (inactive) | > 100 µM (inactive) | > 100 µM (inactive) | > 100 µM (inactive) | > 100 µM (inactive) | > 100 µM (inactive) | > 100 µM (inactive) | > 100 µM (inactive)
5 | c1ccc(CSc2ccccc2CN2CCN(Cc3ccccc3SCc3ccccc3)CCN(Cc3ccccc3SCc3ccccc3)CC2)cc1 | 2.35 µM (inactive) | 2.58 µM (inactive) | 0.869 µM (active) | 1.2 µM (inactive) | 1.09 µM (active) | 0.646 µM (active) | 1.61 µM | 0.989 µM (active) | 1.31 µM (inactive) | 1.63 µM (inactive) | 0.395 µM (active) | 2.44 µM (inactive) | 0.466 µM (active) | 1.77 µM (inactive) | 1.45 µM (inactive) | 1.72 µM (inactive) | 1.92 µM (inactive) | 1.43 µM (inactive) | 1.43 µM (inactive)
6 | N#CSc1[nH]cnc1C(N)=O | > 100 µM (inactive) | > 100 µM (inactive) | > 81.8 µM (inactive) | > 100 µM (inactive) | > 100 µM (inactive) | 60 µM (inactive) | > 100 µM | 20 µM (inactive) | > 100 µM (inactive) | > 10 µM (inactive) | 51.4 µM (inactive) | > 85.5 µM (inactive) | > 100 µM (inactive) | > 100 µM (inactive) | > 100 µM (inactive) | 27.9 µM (inactive) | > 100 µM (inactive) | > 75.5 µM (inactive) | 79.6 µM (inactive)
7 | C=C1C(=O)O[C@@H]2C(=O)[C@@H](C)CCC/C(C)=C/CC[C@@]3(C)O[C@@H]3C[C@@H]12 | > 100 µM (inactive) | 36.9 µM (inactive) | 24 µM (inactive) | 37.7 µM (inactive) | > 100 µM (inactive) | 29.4 µM (inactive) | 20.2 µM | 16.4 µM (inactive) | 51.3 µM (inactive) | 28.6 µM (inactive) | 12.1 µM (inactive) | 95.3 µM (inactive) | 46.3 µM (inactive) | 3.75 µM (inactive) | > 100 µM (inactive) | 40.3 µM (inactive) | > 100 µM (inactive) | 87.9 µM (inactive) | 41.7 µM (inactive)
8 | Nc1ccccc1/N=C/c1cc2cc([N+](=O)[O-])ccc2s1 | 8.47 µM (inactive) | 11.6 µM (inactive) | 17.8 µM (inactive) | 18.6 µM (inactive) | 19.3 µM (inactive) | 24.9 µM (inactive) | 43.3 µM | 12.7 µM (inactive) | 31.4 µM (inactive) | 3.08 µM (inactive) | 15.1 µM (inactive) | 32.1 µM (inactive) | 14 µM (inactive) | 14.5 µM (inactive) | 12.7 µM (inactive) | 23.8 µM (inactive) | 14.1 µM (inactive) | 4.13 µM (inactive) | 12.6 µM (inactive)
9 | CN(C)c1ccc(C(=C2C=CC(=[N+](C)C)C=C2)c2c(O)c(S(=O)(=O)[O-])cc3cc(S(=O)(=O)O)ccc23)cc1 | > 100 µM (inactive) | > 100 µM (inactive) | > 100 µM (inactive) | > 100 µM (inactive) | > 100 µM (inactive) | > 100 µM (inactive) | > 100 µM | > 100 µM (inactive) | > 100 µM (inactive) | > 100 µM (inactive) | > 100 µM (inactive) | > 100 µM (inactive) | > 100 µM (inactive) | > 100 µM (inactive) | > 100 µM (inactive) | > 100 µM (inactive) | > 100 µM (inactive) | > 100 µM (inactive) | > 100 µM (inactive)
10 | O=c1c(Cl)nsnc1Cl | 26.3 µM (inactive) | 6.1 µM (inactive) | 1.83 µM (inactive) | 25.6 µM (inactive) | 19.4 µM (inactive) | 7.01 µM (inactive) | 17.5 µM | 1.73 µM (inactive) | 14.2 µM (inactive) | 1.9 µM (inactive) | 2.02 µM (inactive) | 40.1 µM (inactive) | 5.69 µM (inactive) | 12.1 µM (inactive) | 36.4 µM (inactive) | 20.2 µM (inactive) | 23.4 µM (inactive) | 3.08 µM (inactive) | 11.1 µM (inactive)
11 | O=C1Oc2ccccc2C(=O)/C1=C/N1C(=O)CNC1=S | > 100 µM (inactive) | 56.8 µM (inactive) | > 100 µM (inactive) | > 100 µM (inactive) | > 100 µM (inactive) | > 100 µM (inactive) | > 100 µM | > 100 µM (inactive) | > 100 µM (inactive) | > 100 µM (inactive) | > 100 µM (inactive) | > 100 µM (inactive) | > 100 µM (inactive) | 26.9 µM (inactive) | > 100 µM (inactive) | > 100 µM (inactive) | > 100 µM (inactive) | > 100 µM (inactive) | > 100 µM (inactive)
12 | COC(=O)[C@H](Cc1ccccc1)NC(=O)c1ccc(CNC(=O)/C=C/c2ccc(OCc3ccccc3)cc2)cc1 | 27 µM (inactive) | 14.9 µM (inactive) | > 73.3 µM (inactive) | 25.7 µM (inactive) | 24.3 µM (inactive) | 25.2 µM (inactive) | 40.1 µM | 12 µM (inactive) | 2.62 µM (inactive) | 6.17 µM (inactive) | 65.9 µM (inactive) | 30.4 µM (inactive) | 10.7 µM (inactive) | 6.34 µM (inactive) | 2.55 µM (inactive) | 13.9 µM (inactive) | 15.7 µM (inactive) | 18.8 µM (inactive) | 4.44 µM (inactive)
13 | Nc1cc2c3c(cccc3c1)C(=O)N(c1ccc(OCCN3CCCC3)cc1)C2=O | 16.2 µM (inactive) | 13.5 µM (inactive) | 14.1 µM (inactive) | 18.4 µM (inactive) | 17.5 µM (inactive) | 14.7 µM (inactive) | 13.8 µM | 14.5 µM (inactive) | 18.7 µM (inactive) | 18.5 µM (inactive) | 16 µM (inactive) | 23.9 µM (inactive) | 16 µM (inactive) | 14.2 µM (inactive) | 19.4 µM (inactive) | 21.8 µM (inactive) | 17.2 µM (inactive) | 21.2 µM (inactive) | 16.6 µM (inactive)
14 | O=C(O)C1Cc2ccccc2OC1=O (stereo not given) | > 100 µM (inactive) | > 100 µM (inactive) | > 100 µM (inactive) | > 100 µM (inactive) | > 100 µM (inactive) | > 100 µM (inactive) | > 100 µM | > 100 µM (inactive) | > 100 µM (inactive) | > 100 µM (inactive) | > 100 µM (inactive) | > 100 µM (inactive) | > 100 µM (inactive) | > 100 µM (inactive) | > 100 µM (inactive) | > 100 µM (inactive) | > 100 µM (inactive) | > 100 µM (inactive) | > 100 µM (inactive)
15 | O=S(=O)(c1ccccc1)[C@H]1[C@@H]2O[C@@H]2C[C@@H]1O | > 100 µM (inactive) | > 100 µM (inactive) | > 100 µM (inactive) | > 100 µM (inactive) | > 100 µM (inactive) | > 100 µM (inactive) | > 100 µM | > 100 µM (inactive) | > 100 µM (inactive) | > 100 µM (inactive) | > 100 µM (inactive) | > 100 µM (inactive) | > 100 µM (inactive) | > 100 µM (inactive) | > 100 µM (inactive) | > 100 µM (inactive) | > 100 µM (inactive) | > 100 µM (inactive) | > 100 µM (inactive)
